From patent US20230165798A1, “MACROCYCLIC LACTONE FORMULATIONS, METHODS OF THEIR PREPARATION AND USE OF THE FORMULATIONS IN TREATING PATHOLOGIES SECONDARY TO OPHTHALMIC PARASITES” (Hovione Scientia, priority 2018, published 2023)

Columns and labels:
[1] = test system: demodex; conditions: oral ivermectin, 19 subjects, cited from earlier work
[2] = test system: TNF-α, IL-1, and IL-6 (lipopolysaccharide (LPS)-induced cytokines); conditions: through NF-κB; cited from earlier work
[3] = XRPD polymorphic form before and after Gamma irradiation; format: physicochemical
Protocol: (§1) The solid-state characterization of the spray dried amorphous ivermectin solid dispersions of Examples 1-3 prepared by the traditional spray drying process were evaluated by Scanning Electronic Microscopy (SEM) (Phenom ProX SEM), Differential Scanning calorimetry (DSC) (TA Instruments), Laser diffraction (Sympatec HELOS/RODOS, Germany) employing the rotary feeder and R1 lens, X-Ray Powder Diffraction (Pan Analytical), Raman Spectroscopy (Witec) and High Performance Liquid Chromatography (Waters). FIG. 1 is a scanning electron microscopic picture of the amorphous solid dispersion of Example 1 (ivermectin and PVP-VA-64). FIG. 2 is a scanning electron microscopic image of the amorphous solid dispersion of Example 2 (ivermectin and PVP K-30). FIG. 3 is a scanning electron microscopic picture of the amorphous solid dispersion of Example 3 (ivermectin and HPMC E4M). FIGS. 1-3 are at a magnification of 6000×. FIGS. 4-6 are thermograms of the ASD of Examples 1-3 obtained by differential scanning calorimetry. FIGS. 7-9 are diffractograms of the ASD of Examples 1-3. […] FIGS. 10 and 11 are Raman spectrums for ivermectin, the polymer PVP VA-64 and mixtures of the two (FIG. 10) and ivermectin, the polymer PVP K-30 and mixtures of the two (FIG. 11). […] FIG. 10 includes ratios of ivermectin to PVP VA-64 at ratios of 1:1 and 1:2 and FIG. 11 includes ratios of ivermectin to PVP K-30 at ratios of 1:1, 1:3, and 2:3.
The inventors have also determined that use of the polymer in the amorphous solid dispersion of ivermectin protects the ivermectin from degradation that occurs during Gamma irradiation, heat sterilization or e-beam sterilization. Ophthalmic formulations must be sterilized and Gamma irradiation, heat sterilization or e-beam sterilization are suitable methods for sterilization because other methods, such as filtration, are not suitable for a suspension formulation. […] The ASDs were analyzed by XRPD and HPLC to determine if the Gamma irradiation changed the ivermectin polymorphic form and degradation respectively. […]

[4] = Particle size D90 by laser diffraction before and after Gamma irradiation; format: physicochemical
Protocol: as §1
(§2) Table 4 provides a summary of the characterizations (HPLC, XRPD and particle size) of ivermectin and of the amorphous solid dispersion of Example 1 (PVP-VA 64), Example 2 (PVP K-30) and Example 3 (HPMC E4M) prior to irradiation and after irradiation. Preliminary trials of sterilization by gamma irradiation were successfully completed in the solid material of ivermectin alone and ASDs. The amorphous form of the ASDs was not affected by gamma irradiation.

[5] = HPLC assay of ivermectin before and after Gamma irradiation; format: physicochemical
Excerpt: The inventors have also determined that use of the polymer in the amorphous solid dispersion of ivermectin protects the ivermectin from degradation that occurs during Gamma irradiation, heat sterilization or e-beam sterilization. Ophthalmic formulations must be sterilized and Gamma irradiation, heat sterilization or e-beam sterilization are suitable methods for sterilization because other methods, such as filtration, are not suitable for a suspension formulation. The amorphous solid dispersions for Examples 1-3 were tested to determine the extent that the polymer protects the ivermectin during Gamma irradiation. For preliminary tests, the amorphous ivermectin solid dispersions were sterilized by Gamma irradiation at 25 kGy for 22 hours in a Precisa 22 equipment. The ASDs were analyzed by XRPD and HPLC to determine if the Gamma irradiation changed the ivermectin polymorphic form and degradation respectively.
The assay of the ivermectin on the amorphous solid dispersion was performed before, 1 week and 1 month after the application of Gamma irradiation. Preliminary trials of sterilization by gamma irradiation were successfully completed in the solid material of ivermectin alone and ASDs.
as §2

[6] = Visual solubility in artificial sebum; format: physicochemical; conditions: 24 h of mixing with a magnetic stirrer at room temperature, same amount of ivermectin
Protocol: Some polymers have a capacity to improve the solubility of the ivermectin in the local region of application.
The sebum with the amorphous ivermectin dispersions remains clear (solubilized) after 24 h of mixing with a magnetic stirrer at room temperature, and without polymers the sebum continued opaque (ivermectin in suspension—not solubilized) after the addiction of the both forms of ivermectin (crystalline or amorphous).

| Molecule | Eradication of the demodex ([1]; by month 3 of treatment) | Improvement in signs of ocular inflammation [1] | Symptomatic improvement [1] | Change in TNF-α, IL-1, and IL-6 [2] | XRPD After irradiation (T = 1 month) ([3]; 1 month after Gamma irradiation) | XRPD After irradiation (T = 1 week) ([3]; 1 week after Gamma irradiation) | XRPD Before irradiation ([3]; before irradiation) | D90 After irradiation (T = 1 week) ([4]; 1 week after Gamma irradiation) [μm] | D90 After irradiation (2 M) ([4]; after Gamma irradiation, cells marked (2 M) in the T = 1 month column) | D90 Before irradiation ([4]; before irradiation) [μm] | % API (After: 1 month) ([5]; HPLC, 1 month after Gamma irradiation at 25 kGy for 22 hours) [%] | % API (After: 1 week) ([5]; HPLC, 1 week after Gamma irradiation at 25 kGy for 22 hours) [%] | % API (Before) ([5]; HPLC, before Gamma irradiation) [%] | HPLC (Assay IVM) After irradiation (T = 1 month) ([5]; Table 4, 1 month after Gamma irradiation) [%] | HPLC (Assay IVM) After irradiation (T = 1 week) ([5]; Table 4, 1 week after Gamma irradiation) [%] | HPLC (Assay IVM) Before irradiation ([5]; Table 4, before irradiation) [%] | % API degraded ([5]; before vs 1 month after Gamma irradiation) [%] | Solubility (visual inspection) [6] |
| --- | --- | --- | --- | --- | --- | --- | --- | --- | --- | --- | --- | --- | --- | --- | --- | --- | --- | --- |
| CC[C@H](C)[C@H]1O[C@]2(CC[C@@H]1C)C[C@@H]1C[C@@H](C/C=C(\C)[C@@H](O[C@H]3C[C@H](OC)[C@@H](O[C@H]4C[C@H](OC)[C@@H](O)[C@H](C)O4)[C@H](C)O3)[C@@H](C)/C=C/C=C3\CO[C@@H]4[C@H](O)C(C)=C[C@@H](C(=O)O1)[C@]34O)O2 [IVM, ivermectin] | All subjects had eradication of the demodex | all subjects had an improvement | All but two subjects improved symptomatically | decrease | Amorphous | Amorphous | Amorphous | 2.53 | 2.41 (2 M) μm | 2.66 | 84.3 | 86.9 | 95.2 | 84.26 | 86.9 | 95.2 | 10.9 |  |
| ivermectin [Crystalline ivermectin] |  |  |  |  |  |  |  |  |  |  |  |  |  |  |  |  |  | opaque |
